In ChEMBL document CHEMBL4330144, “A mitochondria-targeted organic arsenical accelerates mitochondrial metabolic disorder and function injury” (Bioorg Med Chem, 2019):
Calls of active or inactive are those of the source. The calls are words filed in the database; no cut-off is given here.

Assays:
Format in all cases: functional
[1] = species: Rattus norvegicus; experiment: Induction of mitochondrial membrane potential loss in isolated Wistar rat mitochondria assessed as stationary increase phase rate constant at 25 uM using pyruvate as substrate up to 3 hrs by microcalorimetry (reference value: 1 to 1.18 10^-3/min)
[2] = species: Rattus norvegicus; experiment: Induction of inner mitochondrial membrane permeabilization in isolated Wistar rat mitochondria assessed as H+ permeabilization at 5 to 75 uM measured for 10 to 30 mins
[3] = species: Rattus norvegicus; experiment: Induction of mitochondrial swelling in isolated Wistar rat mitochondria at 30 uM in presence of cyclosporin-A

SMILES: O=C(CC[P+](c1ccccc1)(c1ccccc1)c1ccccc1)Nc1ccc([As]2SCCCS2)cc1.[Cl-]
- K [1]: 0.72 ×10⁻³ /min
- Activity [2]: Active
- Activity [3]: inactive
